These results are taken from patent USRE35321E, “Tetrazoleacetic acid derivatives having aldose reductase inhibitory activity” (Wakamoto Pharmaceutical Co., Ltd., priority 1990, dated 1996).

The assay concerns the target T1, aldose reductase (Rattus norvegicus, UniProt P07943).
T1 construct: Then their crystalline lenses were immediately removed and stored at -80° C; The lenses were homogenized; from tissue; host or cells: crystalline lenses of six-week-old male SD rats
In words: Aldose reductase inhibitory effect (enzyme from crystalline lenses, DL-glyceraldehyde substrate). The class given is biochemical, rat (male SD). The settings on record: 10 mM DL-glyceraldehyde, pH 6.2, 30° C. The procedure:
Six-weeks-old male SD rates were anesthetized with ether and killed. Then their crystalline lenses were immediately removed and stored at -80° C. […] All operations were conducted at 4° C. and the enzyme solution was stored at -80° C.
More specifically, 0.1 ml of DL glyceraldehyde (final concentration: 10 mM) was added to 0.9 ml of 100 mM sodium potassium phosphate buffer (pH 6.2) which contained lithium sulfate (final concentration: 400 mM), reduced nicotinamide adenine dinucleotide phosphate (final concentration: 0.15 mM), the enzyme solution, and the compound to be evaluated (final concentration: 10^-6 M, 10^-7 M or […]), and then the reaction was conducted at 30° C. for 5 minutes. During the reaction, the change in the absorbance at 340 nm with time was monitored. The maximum reducing rate of the absorbance (U) during the reaction was determined. By subtracting, from this value, the maximum reducing rate (Uo) at 340 nm of the reaction solution before the addition of the substrate (DL-glyceraldehyde), the reaction rate (V=U-Uo) was calculated as a true reaction rate in the presence of the compound to be tested.
The same procedure was repeated except for the absence of the compound to be tested. A true reaction rate (Vo) in case the enzyme was not inhibited was calculated (Vo =U'-Uo '). The aldose reductase inhibitory activity of the test compounds was determined according to the following formula:
Rate of Inhibition (%)=(Vo -V)/Vo ×100

`Cc1ccc(-c2nnnn2CC(=O)O)o1` [Example 2-27, [5-(5-methyl-2-furyl)tetrazol-1-yl] acetic acid] gave an IC50 of 150 nM.
In the case of `O=C(O)Cn1nnnc1-c1sccc1O` [Example 2-42, [5-(3-hydroxy-2-thienyl)tetrazol-1-yl] acetic acid] it was 20 nM; in that of `CCCCS(=O)(=O)Nc1ccsc1-c1nnnn1CC(=O)O` [Example 2-40, [5-(3-butylsulfonylamino-2-thienyl)tetrazol-1-yl] acetic acid], 16 nM.
As to `O=C(O)Cn1nnnc1-c1ccc(Cc2ccccc2)s1` [Example 2-9, [5-(5-benzyl-2-thienyl)tetrazol-1-yl] acetic acid], the IC50 worked out at 20 nM.
In turn, `COCc1ccc(-c2nnnn2CC(=O)O)s1` [Example 2-22, [5-(5-methoxymethyl-2-thienyl)tetrazol-1-yl] acetic acid] came in with a concentration for half-maximal inhibition (IC50) of 31 nM.
`CCCCc1ccc(-c2nnnn2CC(=O)O)o1` [Example 2-28, [5-(5-butyl-2-furyl)tetrazol1-yl-] acetic acid] yielded an IC50 of 130 nM. This IC50 is about 4.2-fold higher than that of the compound before.
Next, `CCCC(=O)Nc1ccsc1-c1nnnn1CC(=O)O` [Example 2-18, [5-(3-propylcarbonylamino-2-thienyl)tetrazol-1-yl] acetic acid]: 20 nM; `COC(=O)Cn1nnnc1-c1ccsc1SC` [Example 3-11, methyl [5-(2-methylthio-3-thienyl)tetrazol-1-yl] acetate]: 380 nM.
As for `CC(=O)Nc1ccsc1-c1nnnn1CC(=O)O` [Example 2-17], the midpoint of inhibition, the IC50, lay at 28 nM.
`COC(=O)Cn1nnnc1-c1ccoc1` [Example 1-7, methyl (5-(3-furyl)tetrazol-1-yl] acetate] returned a concentration for half-maximal inhibition (IC50) of 740 nM.
In the case of `O=C(O)Cn1nnnc1-c1ccc(Br)o1` [Example 2-29, [5-(5-bromo-2-furyl)tetrazol-1-yl] acetic acid] it was 160 nM; in that of `Cc1sccc1-c1nnnn1CC(=O)O` [Example 2-12, [5-(2-methyl-3-thienyl)tetrazol-1-yl] acetic acid], 10 nM; in that of `CSc1ccc(-c2nnnn2CC(=O)O)s1` [Example 2-10], 20 nM.
`O=C(O)Cn1nnnc1-c1ccsc1Br` [Example 2-24, [5-(2-bromo-3-thienyl)tetrazol-1-yl] acetic acid] gave an IC50 of 38 nM.
In the case of `CCCCOCc1ccc(-c2nnnn2CC(=O)O)s1` [Example 2-23, [5-(5-butoxymethyl-2-thienyl)tetrazol-1-yl] acetic acid] it was 25 nM.
In the case of `O=C(O)Cn1nnnc1-c1ccc(Sc2ccccc2)s1` [Example 2-34, [5-(5-phenylthio-2-thienyl)tetrazol-1-yl] acetic acid] it was 26 nM; in that of `COC(=O)Cn1nnnc1-c1ccsc1` [Example 1-5, methyl [5-(3-thienyl)tetrazol-1-yl] acetate], 960 nM.
In the case of `CS(=O)(=O)c1sccc1-c1nnnn1CC(=O)O` [Example 2-44, [5-(2-methylsulfonyl-3-thienyl)tetrazol-1-yl] acetic acid] it was 520 nM; in that of `COc1ccsc1-c1nnnn1CC(=O)O` [Example 2-15, [5-(3-methoxy-2-thienyl)tetrazol-1-yl] acetic acid], 29 nM.
For `CCCCOc1ccsc1-c1nnnn1CC(=O)O` [Example 2-16, [5-(3-butoxy-2-thienyl)tetrazol-1-yl] acetic acid], inhibition was half-maximal at 31 nM (IC50).
Next, `O=C(O)Cn1nnnc1-c1ccc(CBr)s1` [Example 2-13, [5-(5-bromomethyl-2-thienyl)tetrazol-1-yl] acetic acid]: 25 nM.
Next, `COC(=O)Cn1nnnc1-c1sccc1NS(=O)(=O)c1ccccc1` [Example 1-27, methyl [5-(3-phenylsulfonylamino-2-thienyl)tetrazol-1-yl acetate]: 230 nM; `O=C(O)Cn1nnnc1-c1ccoc1Br` [Example 2-31, [5-(2-bromo-3-furyl)tetrazol-1-yl] scetic acid]: 85 nM.

One may read the IC50 as the point on the concentration scale where inhibition reaches its midpoint. A high value points to a need for much substance.
